# Results as given in paper PMC3262907 (ACS Chemical Biology, 2011).
# Assays:
# Format in all cases: cell-based
# [1] = system: HCT116 cells; assay: Proliferation assay; conditions: Homo sapiens, HCT-116, 96 h, read-out: Cell EC50 HCT 116
# [2] = system: HT29 cells; assay: Proliferation assay; conditions: Homo sapiens, HT-29, 96 h, read-out: Cell EC50 HT29
# [3] = system: HeLa S3 cells; assay: Proliferation assay; conditions: Homo sapiens, HeLa S3, 96 h, read-out: Cell EC50 HeLa
# [4] = system: monopolar spindle formation; assay: Spindle morphology by indirect immunofluorescence; conditions: cells arrested in metaphase
EC50 [1] [nM],EC50 [2] [nM],EC50 [3] [nM],SMILES,concentration up to which no significant monopolarity resulted [4] [nM]
15.8,119,16.4,"Cc1cc(Nc2cc(N3CCN(C)CC3)nc(Sc3ccc(NC(=O)C4CC4)cc3)n2)[nH]n1 [Compound 32, VX680]",–
17.4,239,3.8,"CCN(CCCOc1ccc2c(Nc3cc(CC(=O)Nc4cccc(F)c4)n[nH]3)ncnc2c1)CCOP(=O)(O)O [Compound 33, AZD1152]",> 500
50.3,688,214,"O=C(O)c1ccc(Nc2ncc3c(n2)-c2ccc(Cl)cc2C(c2c(F)cccc2F)=NC3)cc1 [Compound 34, MLN8054]",–
